According to patent publication US7410975B2, “Small molecule toll-like receptor (TLR) antagonists” (Coley Pharmaceutical Group, Inc., priority 2003, dated 2008):

Target: T1, human TLR7 (hTLR7) (Homo sapiens, UniProt Q9NYK1)
T1 construct: expressed in transfected cells
T1 sequence (Q9NYK1 27-1049): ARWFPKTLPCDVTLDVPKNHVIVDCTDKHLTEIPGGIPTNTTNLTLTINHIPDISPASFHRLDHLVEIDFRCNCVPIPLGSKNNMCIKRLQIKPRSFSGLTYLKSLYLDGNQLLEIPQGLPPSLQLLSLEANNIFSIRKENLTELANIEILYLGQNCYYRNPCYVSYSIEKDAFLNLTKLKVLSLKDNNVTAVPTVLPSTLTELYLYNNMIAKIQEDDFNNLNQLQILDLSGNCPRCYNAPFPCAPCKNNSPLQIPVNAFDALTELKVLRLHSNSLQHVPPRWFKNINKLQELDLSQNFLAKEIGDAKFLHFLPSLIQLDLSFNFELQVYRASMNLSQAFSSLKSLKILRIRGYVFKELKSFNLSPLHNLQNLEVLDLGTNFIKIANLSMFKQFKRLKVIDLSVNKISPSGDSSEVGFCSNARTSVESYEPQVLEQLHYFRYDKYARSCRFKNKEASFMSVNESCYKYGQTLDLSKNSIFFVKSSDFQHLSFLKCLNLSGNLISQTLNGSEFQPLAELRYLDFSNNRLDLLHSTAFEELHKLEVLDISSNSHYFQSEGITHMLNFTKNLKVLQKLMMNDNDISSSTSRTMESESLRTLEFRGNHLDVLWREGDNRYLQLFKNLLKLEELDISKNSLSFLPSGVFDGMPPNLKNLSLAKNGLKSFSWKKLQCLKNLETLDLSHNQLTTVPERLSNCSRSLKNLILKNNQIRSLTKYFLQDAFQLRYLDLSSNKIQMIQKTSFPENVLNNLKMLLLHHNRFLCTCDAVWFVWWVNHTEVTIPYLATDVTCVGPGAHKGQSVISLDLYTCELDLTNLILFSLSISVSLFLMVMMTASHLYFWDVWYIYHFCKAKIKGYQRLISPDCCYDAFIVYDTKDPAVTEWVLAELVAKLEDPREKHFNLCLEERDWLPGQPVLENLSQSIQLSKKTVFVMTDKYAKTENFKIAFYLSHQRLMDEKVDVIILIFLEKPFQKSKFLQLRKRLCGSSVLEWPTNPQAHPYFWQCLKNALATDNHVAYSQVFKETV
Assay: Antagonist screen, hTLR7-NFκB-293 cells, NF-κB-luciferase reporter, with EC50 of R848
Assay type: cell-based
Details: compound at 0.5, 5, 50 μg/ml; EC50 concentration of R848; 16 h; NF-κB-luciferase
Description: The method is described in greater detail as follows. The cells for each individual cell clone (hTLR3-NFκB-293, hTLR7-NFκB-293, hTLR8-NFκB-293 and hTLR9-NFκB-293) were counted and seeded one day before the stimulation at 1.5×10^4 cells per well in 96-well cell culture plates. To become adherent the cells were incubated after seeding overnight at 37° C. in 5% CO2 humidified air.
The screen for each compound was performed at the same time for all of the receptors TLR3, TLR7, TLR8 and TLR9. Up to fifteen test compounds, each assayed in duplicate at each of three different final concentrations (0.5 μg/ml, 5 μg/ml, and 50 μg/ml), were used for 16 h cell stimulation on a single multiwell culture plate. A 4× final concentration master plate was created to prepare the different test compounds before they were added to the cells.
Controls were added as duplicates individually for each cell clone on the cell culture plate. Positive controls were used as follows (final concentrations): 50 μg/ml poly(I:C) for hTLR3-NFκB-293; 8 μM resiquimod (R848) for hTLR7-NFκB-293; 30 μM R848 for hTLR8-NFκB-293; and 2.5 μM CpG-ODN 2006 for hTLR9-NFκB-293. Media alone was used as negative control. After addition of controls and small molecules, the cell clones were additionally stimulated with the EC50 concentration of the appropriate receptor-specific ligand.
The mean value of wells H2 and H5 (each with cells and EC50 concentration of the appropriate receptor-specific ligand) divided by the mean of wells H3 and H6 (each with cells alone) yielded the baseline response (i.e., fold induction of luciferase activity) to EC50 concentration of the appropriate receptor-specific ligand.
After 16 h stimulation the supernatant was removed and the cells treated with lysis buffer and stored at −80° C. before measuring.
For each screen result a graphical documentation was performed.
The baseline result (measured with addition of the EC50 concentration of the receptor-specific ligand) for each cell culture plate was measured as described above. Antagonistic effects were measured by down regulation compared to the baseline. Antagonists were scored as follows: • 13: compounds for which there was clear down regulation at 0.5 μg/ml, 5 μg/ml, and 50 μg/ml; • 12: compounds for which there was clear down regulation at 5 μg/ml and 50 μg/ml; • 11: compounds for which there was clear down regulation only at 50 μg/ml; • —: compounds for which there was no clear down regulation even at 50 μg/ml. Agonists
Results were expressed as fold induction over baseline luciferase activity measured in the absence of R848. […] Additional screening was performed in like manner using additional small molecules selected from another library or specifically prepared for this purpose. Scoring is reported as above but as applied to TLR7.

SMILES	hTLR7 (inhibitory effect, antagonist score)
CC1NCCc2c1[nH]c1ccccc21.Cl (racemic) [compound 619, Eleagnine hydrochloride (R,S)]	— (compounds for which there was no clear down regulation even at 50 μg/ml)
O=C1c2c(O)cccc2Cc2cccc(O)c21 [compound 43, Anthralin]	— (compounds for which there was no clear down regulation even at 50 μg/ml)
CN(C)CCCN1c2ccccc2Sc2ccc(C(F)(F)F)cc21.Cl [compound 53, Triflupromazinehydrochloride]	11 (compounds for which there was clear down regulation only at 50 μg/ml)
CN(C)CCCN1c2ccccc2Sc2ccc(Cl)cc21.Cl [compound 64, Chlorpromazinehydrochloride]	11 (compounds for which there was clear down regulation only at 50 μg/ml)
CN(C)CCC=C1c2ccccc2CCc2ccccc21.Cl [compound 74, Amitryptilinehydrochloride]	11 (compounds for which there was clear down regulation only at 50 μg/ml)
OC(c1ccccc1)(c1ccccc1)C1CCNCC1 [compound 93, Azacyclonol]	— (compounds for which there was no clear down regulation even at 50 μg/ml)
CN1Cc2c(N)cccc2C(c2ccccc2)C1.O=C(O)/C=C\C(=O)O (stereo not shown) [compound 108, Nomifensine maleate]	— (compounds for which there was no clear down regulation even at 50 μg/ml)
C[C@]12N[C@H](Cc3ccccc31)c1ccccc12.O=C(O)/C=C\C(=O)O [compound 109, Dizocilpine maleate]	— (compounds for which there was no clear down regulation even at 50 μg/ml)
OCCN1CCN(CCCN2c3ccccc3Sc3ccc(Cl)cc32)CC1 [compound 125, Perphenazine]	— (compounds for which there was no clear down regulation even at 50 μg/ml)
CN1CCN(CCCN2c3ccccc3Sc3ccc(S(=O)(=O)N(C)C)cc32)CC1.CS(=O)(=O)O.CS(=O)(=O)O [compound 149, Thioproperasinedimesylate]	— (compounds for which there was no clear down regulation even at 50 μg/ml)
Clc1ccccc1C(c1ccccc1)(c1ccccc1)n1ccnc1 [compound 267, Clotrimazole]	12 (compounds for which there was clear down regulation at 5 μg/ml and 50 μg/ml)
CC(NCCC(c1ccccc1)c1ccccc1)c1ccccc1.Cl (stereo not shown) [compound 270, Fendiline hydrochloride]	11 (compounds for which there was clear down regulation only at 50 μg/ml)
CN1CCC(=C2c3ccccc3Sc3ccccc32)CC1.O=C(O)/C=C\C(=O)O [compound 294, Pimethixene maleate]	11 (compounds for which there was clear down regulation only at 50 μg/ml)
O=c1[nH]c2ccccc2n1C1CCN(CCCC(c2ccc(F)cc2)c2ccc(F)cc2)CC1 [compound 308, Pimozide]	11 (compounds for which there was clear down regulation only at 50 μg/ml)
Cl.Cl.OCCN1CCN(CC/C=C2/c3ccccc3Sc3ccc(C(F)(F)F)cc32)CC1 [compound 340, Flupentixoldihydrochloride cis-(Z)]	11 (compounds for which there was clear down regulation only at 50 μg/ml)
CNCCCN1c2ccccc2CCc2ccccc21.Cl [compound 343, Desipraminehydrochloride]	12 (compounds for which there was clear down regulation at 5 μg/ml and 50 μg/ml)
CN(C)CC/C=C1/c2ccccc2Sc2ccc(Cl)cc21.Cl [compound 348, Chlorprothixenehydrochloride]	11 (compounds for which there was clear down regulation only at 50 μg/ml)
Cc1cccc(C)c1NC(=O)CN1CCN(CCCC(c2ccc(F)cc2)c2ccc(F)cc2)CC1 [compound 381, Lidoflazine]	11 (compounds for which there was clear down regulation only at 50 μg/ml)
Cl.Cl.Fc1ccc(C(OCCN2CCN(CCCc3ccccc3)CC2)c2ccc(F)cc2)cc1 [compound 386, GBR 12909hydrochloride]	11 (compounds for which there was clear down regulation only at 50 μg/ml)
Nc1cccc2c1C(=O)c1cccc(N)c1C2=O [compound 413, Anthraquinone,1,5-diamino]	— (compounds for which there was no clear down regulation even at 50 μg/ml)
CN1CCC2C(C1)c1ccccc1N2Cc1ccccc1 (stereo not shown) [compound 455, Mebhydroline 1,5 naphtalenedisulfonate]	— (compounds for which there was no clear down regulation even at 50 μg/ml)
Cc1cccc(CN2CCN(C(c3ccccc3)c3ccc(Cl)cc3)CC2)c1.Cl.Cl (stereo not shown) [compound 457, Meclozinedihydrochioride]	— (compounds for which there was no clear down regulation even at 50 μg/ml)
c1ccc2c(c1)[nH]c1cnccc12 [compound 470, norharman]	11 (compounds for which there was clear down regulation only at 50 μg/ml)
CN(C)CC/C=C1/c2ccccc2CSc2ccccc21.Cl [compound 488, Dosulepin hydrochloride]	— (compounds for which there was no clear down regulation even at 50 μg/ml)
CN1CCN(C(c2ccccc2)c2ccccc2)CC1.Cl [compound 510, Cyclizine hydrochloride]	— (compounds for which there was no clear down regulation even at 50 μg/ml)
CN1CCCCC1CCN1c2ccccc2Sc2ccc([S+](C)[O-])cc21.O=S(=O)(O)c1ccccc1 (stereo not shown) [compound 529, Mesoridazine besylate]	— (compounds for which there was no clear down regulation even at 50 μg/ml)
CCOC(=O)Oc1c(OC)cc(C(=O)O[C@@H]2C[C@@H]3CN4CCc5c([nH]c6cc(OC)ccc56)[C@H]4C[C@@H]3[C@H](C(=O)OC)[C@H]2OC)cc1OC [compound 564, Syrosingopine]	11 (compounds for which there was clear down regulation only at 50 μg/ml)
COC(=O)[C@H]1[C@H]2C[C@@H]3c4[nH]c5cc(OC)ccc5c4CCN3C[C@H]2C[C@@H](OC(=O)/C=C/c2cc(OC)c(OC)c(OC)c2)[C@@H]1OC [compound 568, Rescinnamin]	— (compounds for which there was no clear down regulation even at 50 μg/ml)
